Reference: PMC4460250, “Systems Pharmacology Dissecting Holistic Medicine for Treatment of Complex Diseases: An Example Using Cardiocerebrovascular Diseases Treated by TCM” (Evidence-based Complementary and Alternative Medicine : eCAM, 2015)

Tests used:
[1] = in vivo
[2] = in vivo; cited from earlier work

Structure (SMILES) | Class(High: HIA value ≥0.7; Low: HIA value < 0.7) [1] | HIA(Human Intestinal Absorption) [2]
NC[C@@H]1O[C@H](O[C@H]2[C@@H](O)[C@H](O[C@@H]3[C@@H](O)[C@H](N)C[C@H](N)[C@H]3O[C@H]3O[C@H](CN)[C@@H](O)[C@H](O)[C@H]3N)O[C@@H]2CO)[C@H](N)[C@@H](O)[C@@H]1O [Neomycin] | Low (key: High: HIA value ≥0.7; Low: HIA value < 0.7) | 0.03
CN(C)C(=O)Oc1cccc([N+](C)(C)C)c1 [Neostigmine] | Low (key: High: HIA value ≥0.7; Low: HIA value < 0.7) | 0.02
COC(=O)C1=C(C)NC(C)=C(C(=O)OCCN(C)Cc2ccccc2)[C@@H]1c1cccc([N+](=O)[O-])c1 [Nicardipine(R)] | High (key: High: HIA value ≥0.7; Low: HIA value < 0.7) | 0.95
COC(=O)C1=C(C)NC(C)=C(C(=O)OCCN(C)Cc2ccccc2)[C@H]1c1cccc([N+](=O)[O-])c1 [Nicardipine(S)] | High (key: High: HIA value ≥0.7; Low: HIA value < 0.7) | 0.95
CN1CCC[C@H]1c1cccnc1 [Nicotine(S)] | High (key: High: HIA value ≥0.7; Low: HIA value < 0.7) | 1
COC(=O)C1=C(C#N)NC(C)=C(C(=O)OC(C)C)[C@H]1c1cccc([N+](=O)[O-])c1 [Nilvadipine(R)] | High (key: High: HIA value ≥0.7; Low: HIA value < 0.7) | 1
COC(=O)C1=C(C#N)NC(C)=C(C(=O)OC(C)C)[C@@H]1c1cccc([N+](=O)[O-])c1 [Nilvadipine(S)] | High (key: High: HIA value ≥0.7; Low: HIA value < 0.7) | 1
COC(=O)C1=C(C)NC(C)=C(C(=O)OCC(C)C)[C@@H]1c1ccccc1[N+](=O)[O-] [Nisoldipine(R)] | High (key: High: HIA value ≥0.7; Low: HIA value < 0.7) | 0.9
COC(=O)C1=C(C)NC(C)=C(C(=O)OCC(C)C)[C@H]1c1ccccc1[N+](=O)[O-] [Nisoldipine(S)] | High (key: High: HIA value ≥0.7; Low: HIA value < 0.7) | 0.9
O=C1CN=C(c2ccccc2)c2cc([N+](=O)[O-])ccc2N1 [Nitrazepam] | High (key: High: HIA value ≥0.7; Low: HIA value < 0.7) | 0.95
CCOC(=O)C1=C(C)NC(C)=C(C(=O)OC)[C@H]1c1cccc([N+](=O)[O-])c1 [Nitrendipine(R)] | High (key: High: HIA value ≥0.7; Low: HIA value < 0.7) | 0.88
CCOC(=O)C1=C(C)NC(C)=C(C(=O)OC)[C@@H]1c1cccc([N+](=O)[O-])c1 [Nitrendipine(S)] | High (key: High: HIA value ≥0.7; Low: HIA value < 0.7) | 0.88
O/N=C/c1cc[n+](COC[n+]2ccc(/C=N/O)cc2)cc1 [Obidoxime] | Low (key: High: HIA value ≥0.7; Low: HIA value < 0.7) | 0.05
C[C@@H]1COc2c(N3CCN(C)CC3)c(F)cc3c(=O)c(C(=O)O)cn1c23 [Ofloxacin(R)] | High (key: High: HIA value ≥0.7; Low: HIA value < 0.7) | 1
C[C@H]1COc2c(N3CCN(C)CC3)c(F)cc3c(=O)c(C(=O)O)cn1c23 [Ofloxacin(S)] | High (key: High: HIA value ≥0.7; Low: HIA value < 0.7) | 1
Cc1nccn1C[C@H]1CCc2c(c3ccccc3n2C)C1=O [Ondansetron(R)] | High (key: High: HIA value ≥0.7; Low: HIA value < 0.7) | 1
Cc1nccn1C[C@@H]1CCc2c(c3ccccc3n2C)C1=O [Ondansetron(S)] | High (key: High: HIA value ≥0.7; Low: HIA value < 0.7) | 1
C=CCOc1ccccc1OC[C@H](O)CNC(C)C [Oxprenolol(R)] | High (key: High: HIA value ≥0.7; Low: HIA value < 0.7) | 0.95
C=CCOc1ccccc1OC[C@@H](O)CNC(C)C [Oxprenolol(S)] | High (key: High: HIA value ≥0.7; Low: HIA value < 0.7) | 0.95
COc1ccc2c3c1O[C@H]1C(=O)CC[C@@]4(O)[C@@H](C2)N(C)CC[C@]314 [Oxycodone] | Low (key: High: HIA value ≥0.7; Low: HIA value < 0.7) | 0.6
COc1cccc(C(=O)CCN[C@@H](C)[C@H](O)c2ccccc2)c1 [Oxyfedrine] | High (key: High: HIA value ≥0.7; Low: HIA value < 0.7) | 0.84
CCCC[C@@H]1C(=O)N(c2ccccc2)N(c2ccc(O)cc2)C1=O [Oxyphenbutazone(R)] | High (key: High: HIA value ≥0.7; Low: HIA value < 0.7) | 1
CCCC[C@H]1C(=O)N(c2ccccc2)N(c2ccc(O)cc2)C1=O [Oxyphenbutazone(S)] | High (key: High: HIA value ≥0.7; Low: HIA value < 0.7) | 1

Structure (SMILES) | Class(High: HIA value ≥0.7; Low: HIA value < 0.7) [1] | HIA(Human Intestinal Absorption) [2]
COc1ccc(Cc2nccc3cc(OC)c(OC)cc23)cc1OC [Papaverine] | High (key: High: HIA value ≥0.7; Low: HIA value < 0.7) | 0.9
CC(C)(C)NC[C@H](O)COc1ccccc1C1CCCC1 [Penbutolol(S)] | High (key: High: HIA value ≥0.7; Low: HIA value < 0.7) | 1
CC(C)=CCN1CCC2(C)c3cc(O)ccc3CC1C2C (centres unmarked) [Pentazocine] | High (key: High: HIA value ≥0.7; Low: HIA value < 0.7) | 0.95
CCC[C@@H](C)C1(CC)C(=O)NC(=O)NC1=O [Pentobarbital(R)] | High (key: High: HIA value ≥0.7; Low: HIA value < 0.7) | 1
CCC[C@H](C)C1(CC)C(=O)NC(=O)NC1=O [Pentobarbital(S)] | High (key: High: HIA value ≥0.7; Low: HIA value < 0.7) | 1
CCN(CC)CC[C@@]1(c2ccccc2)CCC(=O)NC1=O [Phenglutarimide(R)] | High (key: High: HIA value ≥0.7; Low: HIA value < 0.7) | 1
CCN(CC)CC[C@]1(c2ccccc2)CCC(=O)NC1=O [Phenglutarimide(S)] | High (key: High: HIA value ≥0.7; Low: HIA value < 0.7) | 1
CN(C)CC[C@H](c1ccccc1)c1ccccn1 [Pheniramine(R)] | High (key: High: HIA value ≥0.7; Low: HIA value < 0.7) | 0.99
CC1(C)S[C@@H]2[C@H](NC(=O)COc3ccccc3)C(=O)N2[C@H]1C(=O)O [Phenoxymethyl penicillinic acid] | Low (key: High: HIA value ≥0.7; Low: HIA value < 0.7) | 0.45
CC[C@H](c1ccccc1)c1c(O)c2ccccc2oc1=O [Phenprocoumon(R)] | High (key: High: HIA value ≥0.7; Low: HIA value < 0.7) | 0.95
CC[C@@H](c1ccccc1)c1c(O)c2ccccc2oc1=O [Phenprocoumon(S)] | High (key: High: HIA value ≥0.7; Low: HIA value < 0.7) | 0.95
CCCCC1C(=O)N(c2ccccc2)N(c2ccccc2)C1=O [Phenylbutazone] | High (key: High: HIA value ≥0.7; Low: HIA value < 0.7) | 0.98
CC(N)C(O)c1ccccc1 (centres unmarked) [Phenylpropanolamine] | High (key: High: HIA value ≥0.7; Low: HIA value < 0.7) | 0.95
CC(C)NC[C@@H](O)COc1cccc2[nH]ccc12 [Pindolol(R)] | High (key: High: HIA value ≥0.7; Low: HIA value < 0.7) | 0.9
CC(C)NC[C@H](O)COc1cccc2[nH]ccc12 [Pindolol(S)] | High (key: High: HIA value ≥0.7; Low: HIA value < 0.7) | 0.9
CC(C)(C)NC[C@@H](O)c1ccc(O)c(CO)n1 [Pirbuterol(R)] | Low (key: High: HIA value ≥0.7; Low: HIA value < 0.7) | 0.6
CC(C)(C)NC[C@H](O)c1ccc(O)c(CO)n1 [Pirbuterol(S)] | Low (key: High: HIA value ≥0.7; Low: HIA value < 0.7) | 0.6
C[N+]1(C)CCCC1COC(=O)C(O)(c1ccccc1)c1ccccc1 (centres unmarked) [Poldine] | Low (key: High: HIA value ≥0.7; Low: HIA value < 0.7) | 0.05
CN1[C@H](CSCC(F)(F)F)Nc2cc(Cl)c(S(N)(=O)=O)cc2S1(=O)=O [Polythiazide(R)] | High (key: High: HIA value ≥0.7; Low: HIA value < 0.7) | 1
CN1[C@@H](CSCC(F)(F)F)Nc2cc(Cl)c(S(N)(=O)=O)cc2S1(=O)=O [Polythiazide(S)] | High (key: High: HIA value ≥0.7; Low: HIA value < 0.7) | 1
CC(=O)Nc1ccc(OC[C@H](O)CNC(C)C)cc1 [Practolol(R)] | High (key: High: HIA value ≥0.7; Low: HIA value < 0.7) | 0.95
CC(=O)Nc1ccc(OC[C@@H](O)CNC(C)C)cc1 [Practolol(S)] | High (key: High: HIA value ≥0.7; Low: HIA value < 0.7) | 0.95
CCCN[C@H]1CCc2nc(N)sc2C1 [Pramipexole(S)] | High (key: High: HIA value ≥0.7; Low: HIA value < 0.7) | 0.8
